Data as given in PMC9228656 (Toxins, 2022).
Read-outs that look alike come from different tables or passages of the source.

Assays:
[1] = test system: Salmonella typhimurium 1535/pSK1002
[2] = test system: Salmonella tester strains; settings: cited from earlier work
[3] = test system: Salmonella typhimurium 1535/pSK1002; remark: listed apart in the source
[4] = test system: Salmonella typhimurium 1535/pSK1002; remark: listed apart in the source
[5] = test system: Escherichia coli PQ37; settings: cited from earlier work
[6] = test system: 1535, 1538 and 98 strains; settings: cited from earlier work
[7] = test system: Escherichia coli; settings: cited from earlier work

Compound	mutagenic activity in the Ames test [2]	experiments with IF values above two [3]	genotoxicity result in the SOS/umu test [1]	genotoxicity result in the SOS/umu test [4]	genotoxicity result in the SOS/umu test [3]	also measured
Nc1ccc2cc3ccccc3cc2c1 [2AA, 2-aminoanthracene, reference compound]						experiments in which the compound was genotoxic [1]: eight out of eight experiments; induction factor (IF) reached ([1]; Salmonella typhimurium): around 4
CC(=O)O[C@@H]1C[C@]2(C)[C@@]3(CO)[C@H](O)C(=O)C(C)=C[C@H]3O[C@H]1[C@@]21CO1 [3ADON, 3-acetyldeoxynivalenol]	mutagenic activity was not found	three out of four experiments				
CC(=O)OC[C@]12[C@H](O)C(=O)C(C)=C[C@H]1O[C@@H]1[C@H](O)C[C@@]2(C)[C@]12CO2 [15ADON, 15-acetyldeoxynivalenol]		two out of four experiments				
CC1=C[C@H]2O[C@@H]3[C@H](O)C[C@](C)([C@@]2(CO)[C@H](O)C1=O)[C@]31CO1 [DON, deoxynivalenol]	mutagenic activity was not found		negative (key: IF values above or equal to two were considered as positive when the bacterial survival is above 80%; IF values below 1.5 were considered negative; IF among 2 and 1.5 were considered equivocal)	negative (key: IF values above or equal to two were considered as positive when the bacterial survival is above 80%; IF values below 1.5 were considered negative; IF among 2 and 1.5 were considered equivocal)	negative (key: IF values above or equal to two were considered as positive when the bacterial survival is above 80%; IF values below 1.5 were considered negative; IF among 2 and 1.5 were considered equivocal)	genotoxicity in the SOS chromotest [5]: negative; highest IF value obtained ([3]; Salmonella typhimurium): 1.94
CC(=O)O[C@@H]1[C@@H](O)[C@H]2O[C@@H]3C=C(C)C(=O)[C@@H](O)[C@]3(CO)[C@]1(C)[C@]21CO1 [F-X, fusarenon-X]	mutagenic activity was not found		negative (key: IF values above or equal to two were considered as positive when the bacterial survival is above 80%; IF values below 1.5 were considered negative; IF among 2 and 1.5 were considered equivocal)	negative (key: IF values above or equal to two were considered as positive when the bacterial survival is above 80%; IF values below 1.5 were considered negative; IF among 2 and 1.5 were considered equivocal)	negative (key: IF values above or equal to two were considered as positive when the bacterial survival is above 80%; IF values below 1.5 were considered negative; IF among 2 and 1.5 were considered equivocal)	highest IF value obtained [3]: 1.88
CCCC[C@@H](C)[C@@H](OC(=O)C[C@@H](CC(=O)O)C(=O)O)[C@H](C[C@@H](C)C[C@H](O)CCCC[C@@H](O)C[C@H](O)[C@H](C)N)OC(=O)C[C@@H](CC(=O)O)C(=O)O [FB1, fumonisin B1]			negative (key: IF values above or equal to two were considered as positive when the bacterial survival is above 80%; IF values below 1.5 were considered negative; IF among 2 and 1.5 were considered equivocal)	negative (key: IF values above or equal to two were considered as positive when the bacterial survival is above 80%; IF values below 1.5 were considered negative; IF among 2 and 1.5 were considered equivocal)	negative (key: IF values above or equal to two were considered as positive when the bacterial survival is above 80%; IF values below 1.5 were considered negative; IF among 2 and 1.5 were considered equivocal)	mutagenic potential in the Ames test [2]: negative; genotoxicity in the SOS chromotest [5]: negative; IF value reached [3]: 1.99
CC(=O)OC[C@]12C[C@H](OC(=O)CC(C)C)C(C)=C[C@H]1O[C@@H]1[C@H](O)[C@@H](O)[C@@]2(C)[C@]12CO2 [HT-2, HT-2 toxin]		two out of four experiments				
C[C@@H]1Cc2c(Cl)cc(C(=O)N[C@@H](Cc3ccccc3)C(=O)O)c(O)c2C(=O)O1 [OTA, ochratoxin A]			negative (key: IF values above or equal to two were considered as positive when the bacterial survival is above 80%; IF values below 1.5 were considered negative; IF among 2 and 1.5 were considered equivocal)	negative (key: IF values above or equal to two were considered as positive when the bacterial survival is above 80%; IF values below 1.5 were considered negative; IF among 2 and 1.5 were considered equivocal)	negative (key: IF values above or equal to two were considered as positive when the bacterial survival is above 80%; IF values below 1.5 were considered negative; IF among 2 and 1.5 were considered equivocal)	mutagenicity in the Ames test [6]: mutagenic; mutagenic response in the Ames test [2]: negative; mutagenicity with Salmonella tester strains [2]: consistently negative; SOS repair activity in SOS chromotest [5]: induced SOS repair activity; response in SOS chromotest [5]: weak response
COc1cc2c(c3oc4cccc(O)c4c(=O)c13)[C@@H]1C=CO[C@@H]1O2 [STER, sterigmatocystin]		one out of four experiments				induction factor (IF) [1]: greater than two
CC(=O)OC[C@]12C[C@H](OC(=O)CC(C)C)C(C)=C[C@H]1O[C@@H]1[C@H](O)[C@@H](OC(C)=O)[C@@]2(C)[C@]12CO2 [T-2, T-2 toxin]	mutagenic activity was not found	three out of four experiments				
C[C@H]1CCCC(=O)CCC/C=C/c2cc(O)cc(O)c2C(=O)O1 [ZEA, zearalenone]			negative (key: IF values above or equal to two were considered as positive when the bacterial survival is above 80%; IF values below 1.5 were considered negative; IF among 2 and 1.5 were considered equivocal)	negative (key: IF values above or equal to two were considered as positive when the bacterial survival is above 80%; IF values below 1.5 were considered negative; IF among 2 and 1.5 were considered equivocal)	negative (key: IF values above or equal to two were considered as positive when the bacterial survival is above 80%; IF values below 1.5 were considered negative; IF among 2 and 1.5 were considered equivocal)	result in the Ames test [2]: negative; genotoxic concentration (induction of SOS repair) [7]: 1.5 mM; IC50 ([7]; read-out: IC50 (toxicity)): 1450 µM
aflatoxin B1 [AFB1]						mutagenicity with metabolic activation relative to without bioactivation [2]: 1000 times
